The subject of assay [1] is L. mexicana promastigotes. The experiment in a line: Promastigote viability (Alamar Blue/resazurin). The class given is cell-based. Conditions: Leishmania mexicana. As for the experimental part: Next, we evaluated GZD824 ability to reduce the viability of L. mexicana promastigotes by monitoring the reduction of resazurin (Alamar Blue).[31]
(§1) L. mexicana (strain MNYC/BZ/62/M379) promastigotes were cultivated in medium 199 (M199) (Earle’s Salts - Gibco) supplemented with 10% (v/v) heat-inactivated fetal calf serum (HIFCS – Cultilab) and 1% Penicillin/Streptomycin solution (Sigma-Aldrich) at 26 °C. Phenotypic drug response assays in null mutant and point-mutation mutant lines were performed in HOMEM supplemented with 10% (v/v) heat-inactivated fetal calf serum (HIFCS – Gibco). THP-1 monocytes were differentiated in adherent macrophages with 50 ng of PMA for 72 h at 37 °C and 5% CO2 before infection with stationary phase promastigotes (ratio 10 promastigotes:1 macrophage) for 6 h, followed by washing to remove non-internalized Leishmania. Infected macrophages were incubated at 34 °C and 5% CO2 for 48 h in RPMI (Gibco) supplemented with 10% HIFCS and 1% Penicillin/Streptomycin solution.
For evaluation of drug effect on promastigote and uninfected macrophage viability, cells were cultivated in the presence of test compounds for 24 h and incubated with 10% AlamarBlue™ Cell Viability Reagent (ThermoFisher) for 24 h before measuring fluorescence at λex 540 nm/λem 590 nm. Untreated cells (1% DMSO) were set as 100 % viable cells. Intracellular amastigotes were treated with compounds for 48 h. Slides with paraformaldehyde-fixed and DAPI-stained cells were imaged on a Zeiss AxioImager microscope – at least 200 macrophages per drug concentration and DMSO control. Experiments were performed in duplicate. The total number of amastigotes was normalized by the number of macrophages counted. For EC50 determination, the data was fitted to the sigmoidal dose-response (variable slope) equation in GraphPad Prism (v.9.1.0).
Background: Resazurin is reduced to fluorescent resorufin, in cell work by metabolically active cells.

Assay [2] concerns the target NLuc::LmxCLK1 (Leishmania mexicana, UniProt E9AMP2). The experiment in a line: In-cell BRET target engagement in intracellular amastigotes expressing NLuc::LmxCLK1. Type of assay: cell-based. As for the experimental part: as §1
in vitro BRET used purified NLuc-LmxCLK1 in Kinase Buffer (50 mM HEPES, 1 mM EGTA, 10 mM MgCl^2, 2 mM DTT and 0.01% Tween-20) aliquoted into 96-well plates (Greiner #655904). In cell BRET assays used engineered L. mexicana (promastigotes or intramacrophage amastigotes) expressing NLuc-LmxCLK1 in cell media aliquoted into 96-well plates (Greiner, #655083). For tracer titration experiments, BRET probes were serially diluted from 100% DMSO stocks – first in 100% DMSO to 100x final assay concentration, and then in Tracer Dilution Buffer (TDB - 12.5 mM HEPES, pH 7.5; 31.25% PEG 400) to 20x the final assay concentration. Serially diluted probes (5 µL) were added to 85 µL of cells in culture media or 85 µL of purified protein. Final well volumes were adjusted to 100 µL with sterile Opti-MEM™ I Reduced Serum Medium (Thermo-Scientific) – for wells containing cells; or Kinase Buffer - for wells containing purified protein. For tracer displacement assays, samples were prepared as above, but final volume was brought to 100 µL by addition of vehicle or serially-diluted test compounds. Final DMSO concentration in these assays was 1%. Plates were incubated for 30 min at 25 °C (purified protein and promastigotes) or 34 °C (intramacrophage amastigotes), and 50 µL of Promega cocktail containing furimazine and NLuc extracellular inhibitor (catalog #N2161) were added to each well. Light emissions at 460+10 nm (BRET donor) and at 610+20 nm (BRET acceptor) were sequentially recorded (integration time = 0.5 s, gain = 3600) using a luminometer (BMG LABTECH Clariostar or Biotek Synergy HT). BRET values are reported in milli-BRET (mBRET) units (mBU), obtained by dividing the acceptor luminescence by the donor luminescence and multiplying the result by a factor of 1,000. BRET values were converted to blank-corrected probe occupancies (%) according to equation [1]: (1) Probeoccupancy(%)=X−Z/Y−Z×100 where X = mBRET value in the presence of the test compound and the probe, Y = mBRET value in the presence of probe only, and Z = mBRET value in the absence of probe and test compound.
(In BRET a luciferase serves as donor, and the signal depends on an acceptor being close.)

[3] abbreviates: 48 h compound exposure, read-out: EC50 promastigote viability.

The values that follow come from article PMC7619385 (ACS infectious diseases, 2025).

Molecules are shown by their SMILES. Where two headings read alike, the source gives them in different places.

NLuc::LmxCLK1, sequence (E9AMP2 entry or part of it): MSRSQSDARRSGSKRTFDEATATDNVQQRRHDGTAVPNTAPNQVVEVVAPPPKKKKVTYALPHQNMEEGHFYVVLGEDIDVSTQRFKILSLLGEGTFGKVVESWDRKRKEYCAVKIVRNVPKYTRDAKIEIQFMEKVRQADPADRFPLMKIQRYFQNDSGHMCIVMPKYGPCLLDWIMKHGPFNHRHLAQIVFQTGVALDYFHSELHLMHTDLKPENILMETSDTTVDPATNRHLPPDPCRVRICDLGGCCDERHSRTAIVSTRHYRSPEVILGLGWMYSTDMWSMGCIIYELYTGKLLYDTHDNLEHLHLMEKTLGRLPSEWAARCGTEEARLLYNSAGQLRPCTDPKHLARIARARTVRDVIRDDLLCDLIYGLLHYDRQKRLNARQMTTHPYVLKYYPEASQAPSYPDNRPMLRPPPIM

By EC50 is commonly meant the midpoint of the concentration-response curve. Broadly, the IC50 is the point on the concentration scale where inhibition reaches its midpoint. For `Cc1ccc(C(=O)Nc2ccc(CN3CCN(C)CC3)c(C(F)(F)F)c2)cc1C#Cc1cnc2[nH]ncc2c1` [GZD824], the EC50 in assay [1] (setting [3]) was found to be 33 µM. Moreover, the half-maximal inhibitory concentration (IC50) in assay [2] is 13 µM. The “Lower potency in intracellular amastigotes” value in assay [2] (tracer displacement, versus promastigotes) is recorded as ~ 3 fold.

For `C=CC(=O)Nc1cccc(Sc2nc(Nc3ccc(N4CCN(C)CC4)cc3)ncc2Cl)c1` [WZ8040], the EC50 in assay [1] (setting [3]) stood at 7.9 µM; in assay [1] (wild-type comparator of the overexpression experiment (Figure 6D), read-out: EC50 wild-type parasites), 5.6 µM. In addition, the IC50 in assay [2] stood at 7 µM.
